Target: T1, HIV-1 gp120 V3 hypervariable loop (Human immunodeficiency virus type 1 group M subtype B, UniProt P03375)
T1 construct: Polystyrene plates coated with recombinant gp120 and gp160, respectively; purchased American Bio-Technologies, Inc., Cambridge, Mass; host or cells: baculovirus expression system
Experiment: biochemical
Assay type: binding
Outline: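 Inhibition RIA/ELISA: gp120/gp160-coated or synthetic peptide-coated wells (gp120/gp41 of HIV-1 BH10 and V3 loops of 21 isolates) incubated overnight at 25 °C with rabbit anti-peptide antisera (1:150, or 1:1,000 for V3) ± compound (ATA 50 μg/ml). Bound IgG detected with 125I-anti-rabbit IgG; percent inhibition versus no-compound control.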
For Inhibitory activity in this document: key: Chemicals with inhibitory activity are indicated by +.

Structure (SMILES)	extent of inhibition of reaction between gp120 and anti-V3 antibodies versus antibody dilution (ATA 50 μg/ml, FIG. 3)	inhibition of attachment to gp120 of antibodies against the (303-338) segment (ATA 50 μg/ml, antisera 1:150, significant inhibition (FIG. 1A))	Inhibitory activity (Table 1, reaction between HIV-1 gp120 and anti-V3 loop antibodies)	inhibition at 50 µg/mL (read-out: percentage of inhibition)
O=C(O)C1=CC(=C(c2ccc(O)c(C(=O)O)c2)c2ccc(O)c(C(=O)O)c2)C=CC1=O [substance #122, aurintricarboxylic acid]	correlated with the dilution of antibodies	≥ 22%		
C=Cc1c(C)c2cc3nc(c(CC(=O)O)c4[nH]c(cc5nc(cc1[nH]2)C(C)=C5CC)c(C)c4C(=O)O)[C@@H](CCC(=O)O)[C@@H]3C [substance #149, chlorine e6]			+	76.3%

Reference: patent publication US5230998A, “Method for the prescreening of drugs targeted to the V3 hypervariable loop of the HIV-1 envelope glycoprotein gp 120” (priority 1991, dated 1993)
